According to patent EP2036888A1, “Naphthyl-substituted sulfonamides” (Laboratorios del Dr. Esteve S.A., priority 2007, dated 2009):

Target: 5HT6 human recombinant receptor (Homo sapiens, UniProt P50406)
Assay: Binding with serotonin receptor 5HT6 ([3H]-LSD radioligand displacement, HEK-293 cell membranes)
Details: for inhibition at 0.01 µM: read-out: Binding % Inhibition 10 nM; for inhibition at 0.1 µM: read-out: Binding % Inhibition 100 nM

5HT6 human recombinant receptor, sequence (P50406 whole entry): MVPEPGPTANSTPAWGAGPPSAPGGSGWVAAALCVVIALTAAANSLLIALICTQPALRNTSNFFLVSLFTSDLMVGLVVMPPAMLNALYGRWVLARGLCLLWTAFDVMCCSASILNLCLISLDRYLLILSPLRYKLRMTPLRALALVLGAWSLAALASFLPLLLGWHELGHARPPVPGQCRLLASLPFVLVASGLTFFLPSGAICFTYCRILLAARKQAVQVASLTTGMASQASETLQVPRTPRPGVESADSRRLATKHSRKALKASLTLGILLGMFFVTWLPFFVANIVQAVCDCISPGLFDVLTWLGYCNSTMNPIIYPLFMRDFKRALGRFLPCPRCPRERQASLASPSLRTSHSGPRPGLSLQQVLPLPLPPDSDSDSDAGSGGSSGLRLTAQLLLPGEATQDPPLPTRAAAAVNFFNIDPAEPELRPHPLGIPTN

Q: What does the source list for CN(C)CCc1c[nH]c2ccc(N(C)S(=O)(=O)c3ccc4ccccc4c3)cc12 [Example 11, N-(3-(2-(dimethylamino)ethyl)-1H-indol-5-yl)-N-methylnaphthalene-2-sulfonamide]?
A: Ki: 12.3 ± 3.7 nM; inhibition at 0.01 µM: 73.1%; inhibition at 0.1 µM: 93.1%

Q: CN(C)CCc1c[nH]c2ccc(N(C)S(=O)(=O)c3cccc4ccccc34)cc12 [Example 10, N-(3-(2-(dimethylamino)ethyl)-1H-indol-5-yl)-N-methylnaphthalene-1-sulfonamide] was tested. Which Ki did it give?
A: 9.7 ± 4.5 nM

Q: And the inhibition at 0.01 µM?
A: 79.2%

Q: And the inhibition at 0.1 µM?
A: 92.7%

Q: CN(C)CCc1c[nH]c2ccc(NS(=O)(=O)c3cccc4cccc(O)c34)cc12 [Example 19, N-(3-(2-(dimethylamino)ethyl)-1H-indol-5-yl)-8-hydroxynaphthalene-1-sulfonamide] was tested. Which Ki did it give?
A: 24.6 ± 2.1 nM

Q: And the inhibition at 0.01 µM?
A: 53.8%

Q: What about the inhibition at 0.1 µM of the same compound?
A: 85.9%

Q: What does the source list for CN(C)CCc1c[nH]c2ccc(NS(=O)(=O)c3ccc4cc(Cl)ccc4c3)cc12 [Example 1, 6-chloro-N-(3-(2-(dimethylamino)ethyl)-1H-indol-5-yl)naphthalene-2-sulfonamide]?
A: inhibition at 0.01 µM: 73.9%; inhibition at 0.1 µM: 84.4%

Q: Which Ki does the source give for CN(C)CCc1c[nH]c2ccc(N(C)S(=O)(=O)c3ccc4c(Cl)cccc4c3)cc12 [Example 13, 5-chloro-N-(3-(2-(dimethylamino)ethyl)-1H-indol-5-yl)-N-methylnaphthalene-2-sulfonamide] here?
A: 18.1 ± 2.6 nM

Q: What about the inhibition at 0.01 µM of the same compound?
A: 55.5%

Q: What about the inhibition at 0.1 µM of the same compound?
A: 87.6%

Q: Which Ki does the source give for COc1cccc2c(S(=O)(=O)Nc3ccc4[nH]cc(CCN(C)C)c4c3)cccc12 [Example 14, N-(3-(2-(dimethylamino)ethyl)-1H-indol-5-yl)-5-methoxynanhthalene-1-sulfonamide] here?
A: 18.6 nM

Q: And the inhibition at 0.01 µM?
A: 59.6%

Q: What about the inhibition at 0.1 µM of the same compound?
A: 88.1%

Q: Which results are given for COc1ccc2ccc(S(=O)(=O)Nc3ccc4[nH]cc(CCN(C)C)c4c3)cc2c1 [Example 16, N-(3-(2-(dimethylamino)ethyl)-1H-indol-5-yl)-7-methoxynaphthalene-2-sulfonamide]?
A: Ki: 5 ± 1.3 nM; inhibition at 0.01 µM: 70%; inhibition at 0.1 µM: 89.3%

Q: How did the Ki turn out when CN(C)CCc1c[nH]c2ccc(NS(=O)(=O)c3ccc(F)c4ccccc34)cc12 [Example 7, N-(3-(2-(dimethylamino)ethyl)-1H-indol-5-yl)-4-fluoronaphthalene-1-sulfonamide] was run?
A: 5.2 nM

Q: And the inhibition at 0.01 µM?
A: 81.5%

Q: What about the inhibition at 0.1 µM of the same compound?
A: 95.4%

Q: What does the source list for Cc1ccc(S(=O)(=O)Nc2ccc3[nH]cc(CCN(C)C)c3c2)c2ccccc12 [Example 3, N-(3-(2-(dimethylamino)ethyl)-1H-indol-5-yl)-4-methylnanhthalene-1-sulfonamide]?
A: Ki: 9.8 nM; inhibition at 0.01 µM: 80.3%; inhibition at 0.1 µM: 88.5%

Q: Which results are given for COc1cccc2cccc(S(=O)(=O)Nc3ccc4[nH]cc(CCN(C)C)c4c3)c12 [Example 18, N-(3-(2-(dimethylamino)ethyl)-1H-indol-5-yl)-8-methoxynaphthalene-1-sulfonamide]?
A: Ki: 8.3 nM; inhibition at 0.01 µM: 69.2%; inhibition at 0.1 µM: 88.4%

Q: CN(C)CCc1cn(C)c2ccc(NS(=O)(=O)c3ccc4c(Cl)cccc4c3)cc12 [Example 8, 5-chloro-N-(3-(2-(dimethylamino)ethyl)-1-methyl-1H-indol-5-yl)naphthalene-2-sulfonamide] was tested. Which Ki did it give?
A: 13.4 ± 0.9 nM

Q: What about the inhibition at 0.01 µM of the same compound?
A: 64.5%

Q: And the inhibition at 0.1 µM?
A: 93.4%

Q: What does the source list for COc1ccc(S(=O)(=O)Nc2ccc3[nH]cc(CCN(C)C)c3c2)c2ccccc12 [Example 20, N-(3-(2-(dimethylamino)ethyl)-1H-indol-5-yl)-4-methoxynaphthalene-1-sulfonamide]?
A: Ki: 8.5 ± 1.7 nM; inhibition at 0.01 µM: 53.3%; inhibition at 0.1 µM: 81.8%

Q: Which results are given for CN(C)CCc1c[nH]c2ccc(NS(=O)(=O)c3cccc4c(O)cccc34)cc12 [Example 15, N-(3-(2-(dimethylamino)ethyl)-1H-indol-5-yl)-5-hydroxynaphthalene-1-sulfonamide]?
A: Ki: 0.5 nM; inhibition at 0.01 µM: 91.9%; inhibition at 0.1 µM: 94.6%

Q: CN(C)CCc1c[nH]c2ccc(NS(=O)(=O)c3cccc4c(N(C)C)cccc34)cc12 [Example 2] was tested. Which Ki did it give?
A: 5.3 nM

Q: What about the inhibition at 0.01 µM of the same compound?
A: 75.1%

Q: What about the inhibition at 0.1 µM of the same compound?
A: 86.3%

Q: Which Ki does the source give for CN(C)CCc1c[nH]c2ccc(NS(=O)(=O)c3ccc4cc(N(C)C)ccc4c3)cc12 [Example 5, 6-(dimethylamino)-N-(3-(2-(dimethylamino)ethyl)-1H-indol-5-yl)naphthalene-2-sulfonamide] here?
A: 11.9 ± 3.3 nM

Q: And the inhibition at 0.01 µM?
A: 69.8%

Q: What about the inhibition at 0.1 µM of the same compound?
A: 88.5%

Q: Cn1cc(CCN2CCCC2)c2cc(NS(=O)(=O)c3cccc4ccccc34)ccc21 [Example 9, N-(1-methyl-3-(2-(pyrrolidin-1-yl)ethyl)-1H-indol-5-yl)naphthalene-1-sulfonamide] was tested. Which Ki did it give?
A: 42.5 ± 13.9 nM

Q: And the inhibition at 0.01 µM?
A: 58.1%

Q: And the inhibition at 0.1 µM?
A: 86.8%

Q: What does the source list for CN(C)CCc1c[nH]c2ccc(NS(=O)(=O)c3ccc4ccc(O)cc4c3)cc12 [Example 17, N-(3-(2-(dimethylamino)ethyl)-1 H-indol-5-yl)-7-hydroxynaphthalene-2-sulfonamide]?
A: Ki: 6.9 ± 0.2 nM; inhibition at 0.01 µM: 69.9%; inhibition at 0.1 µM: 91.5%

Q: With CN(C)CCc1c[nH]c2ccc(NS(=O)(=O)c3cccc4cccc(Cl)c34)cc12 [Example 6, 8-chloro-N-(3-(2-(dimethylamino)ethyl)-1H-indol-5-yl)naphthalene-1-sulfonamide] as the compound, how does the Ki read?
A: 2.1 nM

Q: And the inhibition at 0.01 µM?
A: 68.4%

Q: What about the inhibition at 0.1 µM of the same compound?
A: 88.4%

Q: For CN(C)CCc1c[nH]c2ccc(N(C)S(=O)(=O)c3cccc4c(Cl)cccc34)cc12 [Example 12, 5-chloro-N-(3-(2-(dimethylamino)ethyl)-1H-indol-5-yl)-N-methylnaphthalene-1-sulfonamide], which Ki is on record?
A: 48.7 ± 6.9 nM

Q: What about the inhibition at 0.01 µM of the same compound?
A: 51.6%

Q: And the inhibition at 0.1 µM?
A: 85.4%

Q: Which results are given for CN(C)CCc1c[nH]c2ccc(NS(=O)(=O)c3ccc4ccc(Cl)cc4c3)cc12 [Example 4, 7-chloro-N-(3-(2-(dimethylamino)ethyl)-1H-indol-5-yl)naphthalene-2-sulfonamide]?
A: Ki: 3.9 ± 0.4 nM; inhibition at 0.01 µM: 81.2%; inhibition at 0.1 µM: 89.3%
